Data: US20240228488A1 (TAKEDA PHARMACEUTICAL COMPANY LIMITED, priority 2021, published 2024)

Experiments:
[1] = biological target: human activated kallikrein enzyme (Homo sapiens, UniProt P03952); test: Plasma kallikrein inhibition, fluorogenic PFR-AMC substrate, 500 pM activated kallikrein format; type: biochemical; conditions: 500 pM activated kallikrein, 300 uM PFR-AMC, 30 min preincubation, 10 min reaction; read-out: Primary Dose Response Assay: Average EC50
Summary of the method: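 Enzyme (500 pM) was preincubated with inhibitor for 30 min at room temperature in 20 mM Tris pH 7.5, 1 mM EDTA, 150 mM NaCl, 0.1% PEG-400 and 0.1% Triton X-100. The reaction was started with 300 uM PFR-AMC, run 10 min, and fluorescence read at 460 nm (380 nm excitation). EC50 derived.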

plasma kallikrein = biological target: T1, plasma kallikrein (Homo sapiens, UniProt P03952); test: Neat human plasma assay, FXIIa contact pathway-activated, PFR-AMC substrate; type: biochemical; conditions: citrated human plasma 78% final, 10 nM human FXIIa, 100 μM PFR-AMC; read-out: Human Plasma Assay: IC90
T1 construct: from tissue
Summary of the method: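 Citrated human plasma (78% final) with compound, contact-activated by 10 nM human FXIIa in pKal buffer pH 7.5, with 100 μM PFR-AMC. Fluorescence (360/480 nm) followed 5 min at room temperature; rates versus concentration fitted by 4-parameter equation for IC50/IC90.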

T1 sequence (P03952 391-638 limits assumed): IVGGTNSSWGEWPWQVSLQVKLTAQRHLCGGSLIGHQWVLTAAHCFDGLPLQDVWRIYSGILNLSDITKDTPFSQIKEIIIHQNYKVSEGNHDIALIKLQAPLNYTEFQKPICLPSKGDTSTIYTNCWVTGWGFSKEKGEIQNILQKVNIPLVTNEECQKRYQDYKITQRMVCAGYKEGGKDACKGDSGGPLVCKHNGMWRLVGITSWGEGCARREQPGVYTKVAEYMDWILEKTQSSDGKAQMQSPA
T1 sequence (P03952 20-390 partner limits assumed): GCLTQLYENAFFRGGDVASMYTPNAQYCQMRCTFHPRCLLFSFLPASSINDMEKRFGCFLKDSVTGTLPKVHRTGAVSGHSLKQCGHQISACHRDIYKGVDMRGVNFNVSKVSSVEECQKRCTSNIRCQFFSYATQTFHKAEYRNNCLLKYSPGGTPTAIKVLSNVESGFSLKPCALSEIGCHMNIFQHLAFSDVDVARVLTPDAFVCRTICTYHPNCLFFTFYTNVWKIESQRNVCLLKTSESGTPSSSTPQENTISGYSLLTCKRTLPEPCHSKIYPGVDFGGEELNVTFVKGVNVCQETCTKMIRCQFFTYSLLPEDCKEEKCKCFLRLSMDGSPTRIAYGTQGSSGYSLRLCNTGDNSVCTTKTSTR
Sequence of human activated kallikrein enzyme (P03952 391-638 limits assumed): as the sequence (P03952 391-638 limits assumed) above
Sequence of human activated kallikrein enzyme (P03952 20-390 partner limits assumed): as the sequence (P03952 20-390 partner limits assumed) above

Row | EC50 [1] [µM] | IC90 (plasma kallikrein) [µM] | SMILES
1 | < 0.001 | 0.4 to 1.5 | O=C(Nc1cc(NCc2cn3cc(C4CC4)cc(N4CCOC4=O)c3n2)ncn1)[C@H]1C[C@@H]1c1cc(Cl)ccn1 [Example I-172, (1S,2S)-2-(4-chloropyridin-2-yl)-N-(6-(((6-cyclopropyl-8-(2-oxooxazolidin-3-yl)imidazo[1,2-a]pyridin-2-yl)methyl)amino)pyrimidin-4-yl)cyclopropane-1-carboxamide]
2 | < 0.001 | < 0.4 | Cc1ccnc([C@H]2C[C@@H]2C(=O)Nc2cc(NCc3cn4cc(C5CC5)cc(N5CCOC5=O)c4n3)ncn2)n1 [Example 376, (1S,2S)-N-(6-(((6-cyclopropyl-8-(2-oxooxazolidin-3-yl)imidazo[1,2-a]pyridin-2-yl)methyl)amino)pyrimidin-4-yl)-2-(4-methylpyrimidin-2-yl)cyclopropane-1-carboxamide]
3 | < 0.001 | 1.5 to 10 | CC(=O)c1cc(C2CC2)cn2cc(CNc3ccnc(NC(=O)[C@H]4C[C@@H]4c4cccc(Cl)c4)c3)nc12 [Example I-237, (1S,2S)-N-(4-(((8-acetyl-6-cyclopropylimidazo[1,2-a]pyridin-2-yl)methyl)amino)pyridin-2-yl)-2-(3-chlorophenyl)cyclopropane-1-carboxamide]
4 | < 0.001 | 1.5 to 10 | O=C(Nc1cc(NCc2cn3cc(C4CC4)ccc3n2)ccn1)[C@H]1C[C@@H]1c1cccc(Cl)c1 (single isomer, unassigned) [Example 117]
5 | 0.001 to 0.01 | 10 to 48 | CS(=O)(=O)c1cc(C2CC2)cn2cc(CNc3cc(NC(=O)[C@H]4C[C@@H]4c4cccc(Cl)c4)ncn3)nc12 (racemic) [Example 60, rac-(1S*,2S*)-2-(3-chlorophenyl)-N-(6-(((6-cyclopropyl-8-(methylsulfonyl)imidazo[1,2-α]pyridin-2-yl)methyl)amino)pyrimidin-4-yl)cyclopropane-1-carboxamide]
6 | < 0.001 | 10 to 48 | Cc1ccnc([C@H]2C[C@@H]2C(=O)Nc2cc(NCc3cn4cc(C5CC5)ccc4n3)ccn2)n1 (racemic) [Example 414, rac-(1S*,2S*)-N-(4-(((6-cyclopropylimidazo[1,2-a]pyridin-2-yl)methyl)amino)pyridin-2-yl)-2-(4-methylpyrimidin-2-yl)cyclopropane-1-carboxamide]
7 | < 0.001 | < 0.4 | Cc1ccnc([C@H]2C[C@@H]2C(=O)Nc2cc(N[C@H](C)c3cn4cc(C5CC5)cc(N5CC6(COC6)CC5=O)c4n3)nc(C)n2)n1 [Example I-27, (1S,2S)—N-(6-(((R)-1-(6-cyclopropyl-8-(7-oxo-2-oxa-6-azaspiro[3.4]octan-6-yl)imidazo[1,2-a]pyridin-2-yl)ethyl)amino)-2-methylpyrimidin-4-yl)-2-(4-methylpyrimidin-2-yl)cyclopropane-1-carboxamide]
8 | < 0.001 | < 0.4 | O=C(Nc1cc(NCc2cn3cc(C4CC4)cc(C(O)C4CNC4)c3n2)ccn1)[C@H]1C[C@@H]1c1cccc(Cl)c1 (stereo partly drawn) [Example 135, (1S,2S)—N-(4-(((8-(-azetidin-3-yl(hydroxy)methyl)-6-cyclopropylimidazo[1,2-a]pyridin-2-yl)methyl)amino)pyridin-2-yl)-2-(3-chlorophenyl)cyclopropane-1-carboxamide]
9 | < 0.001 | 1.5 to 10 | O=C(Nc1cc(NCc2cn3cc(C4CC4)cc(N4CCOCC4)c3n2)ccn1)[C@H]1C[C@@H]1c1cccc(Cl)c1 [Example 129, (1S,2S)-2-(3-chlorophenyl)-N-(4-(((6-cyclopropyl-8-morpholinoimidazo[1,2-a]pyridin-2-yl)methyl)amino)pyridin-2-yl)cyclopropane-1-carboxamide]
10 | 0.001 to 0.01 | 1.5 to 10 | O=C(Nc1cc(N2C[C@@H](O)C[C@@H]2c2cn3cc(C4CC4)ccc3n2)ncn1)[C@H]1C[C@@H]1c1cccc(Cl)c1 [Example 283, (1S,2S)-2-(3-chlorophenyl)-N-(6-((2R,4S)-2-(6-cyclopropylimidazo[1,2-a]pyridin-2-yl)-4-hydroxypyrrolidin-1-yl)pyrimidin-4-yl)cyclopropane-1-carboxamide]
11 | 0.001 to 0.01 | 1.5 to 10 | Cc1ccnc([C@H]2C[C@@H]2C(=O)Nc2cc(N(C)Cc3cn4cc(C5CC5)cc(N5CC(=O)N(CCOCc6ccccc6)C5=O)c4n3)cc(C3CC3)n2)n1 [Example I-636, (1S,2S)—N-(4-(((8-(3-(2-(benzyloxy)ethyl)-2,4-dioxoimidazolidin-1-yl)-6-cyclopropylimidazo[1,2-a]pyridin-2-yl)methyl)(methyl)amino)-6-cyclopropylpyridin-2-yl)-2-(4-methylpyrimidin-2-yl)cyclopropane-1-carboxamide]
12 | < 0.001 | 0.4 to 1.5 | Cc1ccnc([C@H]2C[C@@H]2C(=O)Nc2cc(NCc3cn4cc(C5CC5)cc(S(C)(=O)=O)c4n3)ncn2)n1 (single isomer, unassigned) [Example 324]
13 | 0.001 to 0.01 | 1.5 to 10 | O=C(Nc1cc(NCc2cn3cc(C4CC4)cc(N4CCN5CCC4C5)c3n2)ncn1)[C@H]1C[C@@H]1c1cccc(Cl)c1 (stereo partly drawn) [Example I-11, (1S,2S)-N-(6-(((8-(1,4-diazabicyclo[3.2.1]octan-4-yl)-6-cyclopropylimidazo[1,2-a]pyridin-2-yl)methyl)amino)pyrimidin-4-yl)-2-(3-chlorophenyl)cyclopropane-1-carboxamide]
14 | < 0.001 | 0.4 to 1.5 | CN(C)C1CCN(c2cc(C3CC3)cn3cc(CNc4cc(NC(=O)[C@H]5C[C@@H]5c5cccc(Cl)c5)ncn4)nc23)C1=O (stereo partly drawn) [Example I-17, (1S,2S)-2-(3-chlorophenyl)-N-(6-(((6-cyclopropyl-8-(3-(dimethylamino)-2-oxopyrrolidin-1-yl)imidazo[1,2-a]pyridin-2-yl)methyl)amino)pyrimidin-4-yl)cyclopropane-1-carboxamide]
15 | < 0.001 | < 0.4 | CN1CCN(c2cc(C3CC3)cn3cc(CNc4ccnc(NC(=O)[C@H]5C[C@@H]5c5cccc(Cl)c5)c4)nc23)C(=O)C1 [Example 127, (1S,2S)-2-(3-chlorophenyl)-N-(4-(((6-cyclopropyl-8-(4-methyl-2-oxopiperazin-1-yl)imidazo[1,2-a]pyridin-2-yl)methyl)amino)pyridin-2-yl)cyclopropane-1-carboxamide]
16 | 0.001 to 0.01 | 1.5 to 10 | CN1CCN(c2cc(C3CC3)cn3cc(CNc4cc(NC(=O)[C@H]5C[C@@H]5c5cccc(Cl)c5)ncn4)nc23)CC1=O [Example I-153, (1S,2S)-2-(3-chlorophenyl)-N-(6-(((6-cyclopropyl-8-(4-methyl-3-oxopiperazin-1-yl)imidazo[1,2-a]pyridin-2-yl)methyl)amino)pyrimidin-4-yl)cyclopropane-1-carboxamide]
17 | < 0.001 | < 0.4 | Cc1ccnc([C@H]2C[C@@H]2C(=O)Nc2cc(N(C)Cc3cn4cc(C5CC5)cc(N5CC(=O)N(CCO)C5=O)c4n3)ncn2)n1 [Example 462, (1S,2S)-N-(6-(((6-cyclopropyl-8-(3-(2-hydroxyethyl)-2,4-dioxoimidazolidin-1-yl)imidazo[1,2-a]pyridin-2-yl)methyl)(methyl)amino)pyrimidin-4-yl)-2-(4-methylpyrimidin-2-yl)cyclopropane-1-carboxamide]
18 | < 0.001 | < 0.4 | Cc1ccnc([C@H]2C[C@@H]2C(=O)Nc2ncc(F)c(NCc3cn4cc(C5CC5)cc(N5CC(=O)N(CCO)C5=O)c4n3)n2)n1 (racemic) [Example 540, rac-(1S*,2S*)—N-(4-(((6-cyclopropyl-8-(3-(2-hydroxyethyl)-2,4-dioxoimidazolidin-1-yl)imidazo[1,2-a]pyridin-2-yl)methyl)amino)-5-fluoropyrimidin-2-yl)-2-(4-methylpyrimidin-2-yl)cyclopropane-1-carboxamide]
19 | < 0.001 | 0.4 to 1.5 | Cc1ccnc([C@@]2(F)C[C@@H]2C(=O)Nc2cc(N(C)Cc3cn4cc(C5CC5)cc(N5CC(=O)N(C)C5=O)c4n3)nc(C)n2)n1 (racemic) [Example 490, rac-(1S*,2S*)-N-(6-(((6-cyclopropyl-8-(3-methyl-2,4-dioxoimidazolidin-1-yl)imidazo[1,2-a]pyridin-2-yl)methyl)(methyl)amino)-2-methylpyrimidin-4-yl)-2-fluoro-2-(4-methylpyrimidin-2-yl)cyclopropane-1-carboxamide]
20 | < 0.001 | 0.4 to 1.5 | Cc1ccnc([C@H]2C[C@@H]2C(=O)Nc2cc(NCc3cn4cc(C5CC5)cc(N5CC(=O)N(C)C5=O)c4n3)ncn2)c1 (racemic) [Example 393, rac-(1S*,2S*)-N-(6-(((6-cyclopropyl-8-(3-methyl-2,4-dioxoimidazolidin-1-yl)imidazo[1,2-a]pyridin-2-yl)methyl)amino)pyrimidin-4-yl)-2-(4-methylpyridin-2-yl)cyclopropane-1-carboxamide]
21 | < 0.001 | < 0.4 | O=C(Nc1cc(NCc2cn3cc(C4CC4)cc(N4CCN(CCO)CC4)c3n2)ccn1)[C@H]1C[C@@H]1c1cccc(Cl)c1 [Example 603, (1S,2S)-2-(3-chlorophenyl)-N-(4-(((6-cyclopropyl-8-(4-(2-hydroxyethyl)piperazin-1-yl)imidazo[1,2-a]pyridin-2-yl)methyl)amino)pyridin-2-yl)cyclopropane-1-carboxamide]
22 | < 0.001 | < 0.4 | Cc1ccnc([C@H]2C[C@@H]2C(=O)Nc2cc(NCc3cn4cc(C5CC5)cc(N5CCOC5=O)c4n3)ncn2)n1 (racemic) [Example 390, rac-(1S*,2S*)-N-(6-(((6-cyclopropyl-8-(2-oxooxazolidin-3-yl)imidazo[1,2-a]pyridin-2-yl)methyl)amino)pyrimidin-4-yl)-2-(4-methylpyrimidin-2-yl)cyclopropane-1-carboxamide]
